Results taken from US20060051754A1, “Transporter selectively transporting sulfate conjugate and its gene” (Japan Science and Technology Agency, priority 2002, published 2006).
Counter-ions that a name gives are not always drawn.

Key:
Type in all cases: cell-based
human OAT7 [1] = target: T1, human OAT7 (Homo sapiens, UniProt Q8IVM8); experiment: inhibition of [3H]estrone-sulfate conjugate uptake by OAT7-expressing oocyte (substrate selectivity); settings: [3H]estrone-sulfate conjugate 1 μM, 100 μM of unlabeled compound; FIGS. 8, 9, 10A and 10B
T1 construct: expressed in transfected cells
T1 sequence (Q8IVM8 whole entry): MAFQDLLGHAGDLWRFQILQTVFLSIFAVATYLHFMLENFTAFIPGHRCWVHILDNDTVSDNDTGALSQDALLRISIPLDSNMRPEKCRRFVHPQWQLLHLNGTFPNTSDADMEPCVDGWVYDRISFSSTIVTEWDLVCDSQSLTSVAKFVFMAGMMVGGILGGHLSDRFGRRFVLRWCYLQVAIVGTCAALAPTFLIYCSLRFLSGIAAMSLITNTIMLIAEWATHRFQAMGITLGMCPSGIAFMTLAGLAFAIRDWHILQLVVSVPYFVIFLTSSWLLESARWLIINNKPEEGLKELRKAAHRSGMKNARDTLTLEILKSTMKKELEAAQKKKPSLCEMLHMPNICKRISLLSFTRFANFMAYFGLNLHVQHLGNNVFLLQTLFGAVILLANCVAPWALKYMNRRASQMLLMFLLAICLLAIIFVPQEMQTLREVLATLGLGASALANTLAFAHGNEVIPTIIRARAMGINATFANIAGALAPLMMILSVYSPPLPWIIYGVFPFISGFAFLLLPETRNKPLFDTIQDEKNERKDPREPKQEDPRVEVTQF
Description: (§1) A substrate uptake experiment was performed on the oocyte into which the human OAT7 gene cRNA was injected and a control oocyte into which water was injected, using the [^3H]estrone-sulfate conjugate and the [^3H]dehydroepiandrosterone-sulfate conjugate as the substrates in accordance with the method of Kanai et al. (Kanai and Hediger, Nature, Vol. 360, pp. 467 to 471, 1992) as described below. After leaving the oocyte in an ND96 solution (96 mM sodium chloride, 2 mM potassium chloride, 1.8 mM calcium chloride, 1 mM magnesium chloride, 5 mM HEPES, pH7.4) containing the [^3H]estrone-sulfate conjugate (50 nM) and the [^3H]dehydroepiandrosterone-sulfate conjugate (100 nM) as a substrate for 60 minutes, and an uptake ratio of the substrate was measured by way of counting radioactivity taken up into the cells.
In the [^3H]estrone-sulfate conjugate uptake experiment using an oocyte into which the human OAT7 gene cRNA was injected, the effect of addition of various organic anions and organic cations on the system was examined.
The [^3H]estrone-sulfate conjugate uptake experiment was conducted using the oocyte into which the human OAT7 gene cRNA was injected and in accordance with the method described in Example 2(1). In the experiment, [^3H]estrone-sulfate conjugate (1 μM) uptake was measured under the presence and the absence of 100 μM of various compounds (unlabeled).
Since OAT7 is the organic anion transporter existing in the liver, effects of various organic anions which are considered to be transported in the hepatic cells on the [^3H]estrone-sulfate conjugate uptake by way of OAT7 were examined.
In order to clarify which one of the sulfate conjugate, the glucuronide conjugate, the glutathione conjugate is accepted by OAT7, effects of various conjugate compounds on the [^3H]estrone-sulfate conjugate uptake were examined.

human OAT7 [2] = target: T1, human OAT7; experiment: Michaelis-Menten kinetics test on OAT7 (oocyte uptake); settings: mean±standard error; OAT7-expressing oocyte; FIGS. 7A and 7B
Description: as §1
A Michaelis-Menten kinetics test on the liver specific organic anion transporter OAT7 selectively transporting a sulfate conjugate was conducted. The Michaelis-Menten kinetics test on OAT7 was performed by examining changes in uptake ratio of the substrate [^3H]estrone-sulfate conjugate and the [^3H]dehydroepiandrosterone-sulfate conjugate depending on the concentrations of the substrate [^3H]estrone-sulfate conjugate and the [^3H]dehydroepiandrosterone-sulfate conjugate. […]

human OAT7 [3] = target: T1, human OAT7; experiment: substrate uptake experiment by oocyte into which the human OAT7 gene cRNA was injected
Description: After expressing the human OAT7 gene cRNA in an oocyte, [^3H]estrone-sulfate conjugate uptake and [^3H]dehydroepiandrosterone-sulfate conjugate uptake were measured.
After injecting 20 ng of the human OAT7 gene cRNA into the oocyte to be expressed, a 3-days culture was performed.
as §1
Time passage of the substrate uptake by the oocyte into which the human OAT7 gene cRNA was injected and a control oocyte into which water was injected was observed using the [^3H]estrone-sulfate conjugate (50 nM) as the substrate and in accordance with the method of Example 2(1).
The effect of salt added in the culture used in the [^3H]estrone-sulfate conjugate (50 nM) uptake experiment were examined using an oocyte into which the human OAT7 gene cRNA was injected and a control oocyte into which water was injected.
The [^3H]estrone-sulfate conjugate uptake experiment was conducted in accordance with the method described in Example 2(1) using the oocyte into which the human OAT7 gene cRNA was injected. In the experiment, a sodium ion free absorption solution (wherein 96 mM sodium chloride was substituted with 96 mM choline chloride) was used as an uptake solution in place of the standard absorption solution for the purpose of observing the effect of the sodium ion.

Compound: CC1(C)C(/C=C/C=C/C=C/C=C2\N(CCCCS(=O)(=O)[O-])c3ccc4ccccc4c3C2(C)C)=[N+](CCCCS(=O)(=O)[O-])c2ccc3ccccc3c21.[Na+] [indocyanin green]
- cys-inhibition effect on [3H]estrone-sulfate conjugate uptake (human OAT7 [1]): significant cys-inhibition effect

Compound: O=C1OC(c2ccc(O)c(S(=O)(=O)O)c2)(c2ccc(O)c(S(=O)(=O)O)c2)c2c(Br)c(Br)c(Br)c(Br)c21 [sulfobromophthalein]
- cys-inhibition effect on [3H]estrone-sulfate conjugate uptake (human OAT7 [1]): significant cys-inhibition effect

Compound: C[C@]12CC[C@@H]3c4ccc(OS(=O)(=O)O)cc4CC[C@H]3[C@@H]1CC[C@@H]2O [β-estradiol-sulfate conjugate]
- cys-inhibition effect on [3H]estrone-sulfate conjugate uptake (human OAT7 [1]): significant cys-inhibition effect

Compound: C[C@]12CC[C@@H]3c4ccc(OS(=O)(=O)O)cc4CC[C@H]3[C@@H]1CCC2=O [estrone-sulfate conjugate]
- Km (human OAT7 [2]): 8.7 ± 1.1 µM
- cys-inhibition effect on [3H]estrone-sulfate conjugate uptake (human OAT7 [1]): significant cys-inhibition effect
- [3H]estrone-sulfate conjugate uptake by oocytes in which OAT7 was expressed vs control oocyte into which water was injected (human OAT7 [3]; substrate 50 nM, ND96 solution pH7.4, 60 minutes, FIG. 6A): significantly greater
- effect of change of extracellular sodium to choline on uptake (human OAT7 [3]; substrate 50 nM, 96 mM sodium chloride substituted with 96 mM choline chloride, FIG. 6C): no effect
- time dependency of uptake by way of OAT7 (human OAT7 [3]; substrate 50 nM, FIG. 6B): increases substantially linearly in a time dependent manner till the passage of 120 minutes

Compound: O=[N+]([O-])c1ccc(OS(=O)(=O)O)cc1 [p-nitrophenol-sulfate conjugate]
- cys-inhibition effect on [3H]estrone-sulfate conjugate uptake (human OAT7 [1]): significant cys-inhibition effect

Compound: Cc1cc(=O)oc2cc(OS(=O)(=O)O)ccc12 [4-methylumbelliferyl sulfate conjugate]
- cys-inhibition effect on [3H]estrone-sulfate conjugate uptake (human OAT7 [1]): significant cys-inhibition effect

Compound: N=c1nc(N2CCCCC2)cc(N)n1OS(=O)(=O)O [minoxidil-sulfate conjugate]
- cys-inhibition effect on [3H]estrone-sulfate conjugate uptake (human OAT7 [1]): significant cys-inhibition effect

Compound: C[C@]12CC[C@H](OS(=O)(=O)O)CC1=CC[C@@H]1[C@@H]2CC[C@]2(C)C(=O)CC[C@@H]12 [dehydroepiandrosterone-sulfate conjugate]
- Km (human OAT7 [2]): 2.2 ± 0.3 µM
- cys-inhibition effect on [3H]estrone-sulfate conjugate uptake (human OAT7 [1]): significant cys-inhibition effect
- [3H]dehydroepiandrosterone-sulfate conjugate uptake by oocytes in which OAT7 was expressed vs control oocyte into which water was injected (human OAT7 [3]; substrate 100 nM, ND96 solution pH7.4, 60 minutes, FIG. 6A): significantly greater
